Assay results: ChEMBL document CHEMBL6134881, “From Natural Products to Small Molecules: Recent Advancements in Anti-MRSA Therapeutics” (ACS Med Chem Lett, 2025)
Values after ≈ are worked out from the molar mass of the structure shown.

system: Staphylococcus aureus; test: Antibacterial activity against methicllin-resistant Staphylococcus aureus; assay type: functional; details: not given

Compound | MIC
CC(C)=CCCC(O)COc1cccc2c1c1ccccc1n2C (configuration not stated) | > 50 µg/mL
CCCCCCCCCn1c2ccccc2c2c(OCC(O)CCC=C(C)C)cccc21 (configuration not stated) | 6.25 µg/mL (≈ 14.3 µM)
CC(C)=CCCC(O)COc1cccc2c1c1ccccc1n2CC=C(C)C (configuration not stated) | 3.13 µg/mL (≈ 8.3 µM)
CCCCCCCn1c2ccccc2c2c(OCC(O)CCC=C(C)C)cccc21 (configuration not stated) | 12.5 µg/mL (≈ 30.7 µM)
CCCCCn1c2ccccc2c2c(OCC(O)CCC=C(C)C)cccc21 (configuration not stated) | 6.25 µg/mL (≈ 16.5 µM)
CCCn1c2ccccc2c2c(OCC(O)CCC=C(C)C)cccc21 (configuration not stated) | 50 µg/mL (≈ 142 µM)

system: HepG2; test: Cytotoxicity against human HepG2 cells assessed as reduction in cell viability by measuring lethal concentration by SRB assay; assay type: functional; details: read-out: LC50 (the source's name)

Compound | CC50
OCc1ccc2cc(-c3ccc(O)c(C45CC6CC(CC(C6)C4)C5)c3)ccc2c1 | > 32 µg/mL
O=C(O)c1ccc2cc(-c3ccc(O)c(C45CC6CC(CC(C6)C4)C5)c3)ccc2c1 [O-DEMETHYLATED ADAPALENE] | 5 µg/mL (≈ 12.5 µM)

system: Staphylococcus aureus; test: Antibacterial activity against methicillin-resistant Staphylococcus aureus ATCC 33591; assay type: functional; details: not given

Compound | MIC
CCC(c1ccc(O)cc1)C(CC)c1ccc(O)cc1 (configuration not stated) | 16 µM (≈ 4.33 µg/mL)
O=C(Nc1ccc2c(c1)OC(F)(F)O2)Nc1ccc(Cl)c(C(F)(F)F)c1 | 0.3 µM (≈ 0.118 µg/mL)
O=C(O)c1c(Sc2ccccc2)c2cc(Cl)ccc2n1Cc1ccc(Cl)cc1 | 1 µM (≈ 0.428 µg/mL)
CNC(=O)c1cc(Oc2ccc(NC(=O)Nc3ccccc3)cc2)ccn1 | > 100 µM
Oc1c(Cl)cc(Cl)cc1Sc1cc(Cl)cc(Cl)c1O [BITHIONOL] | 0.5 µM (≈ 0.178 µg/mL)
CNC(=O)c1cc(Oc2ccc(NC(=O)Nc3ccc(Cl)c(C)c3)cc2)ccn1 | > 100 µM
CNC(=O)c1cc(Oc2ccc(NC(=O)Nc3ccc(Cl)c(C(F)(F)F)c3)cc2)ccn1 [SORAFENIB] | 3 µM (≈ 1.39 µg/mL)
CNC(=O)c1cc(Oc2ccc(NC(=O)Nc3cccc(C(F)(F)F)c3)cc2)ccn1 | > 100 µM

system: Staphylococcus aureus; test: Antibacterial activity against methicillin-resistant Staphylococcus aureus ATCC 43300 assessed as reduction in bacterial growth incubated for 18 hrs by mueller hinton broth dilution method; assay type: functional; details: not given

Compound | MIC
CC[N+](CC)=c1sc2c(s1)C(c1ccc(F)cc1)Oc1ccc(C)cc1-2.F[B-](F)(F)F (configuration not stated) | 16.6 µg/mL
OCc1ccc2cc(-c3ccc(O)c(C45CC6CC(CC(C6)C4)C5)c3)ccc2c1 | 2 µg/mL (≈ 5.2 µM)
O=C(O)c1ccc2cc(-c3ccc(O)c(C45CC6CC(CC(C6)C4)C5)c3)ccc2c1 [O-DEMETHYLATED ADAPALENE] | 1 µg/mL (≈ 2.51 µM)
CC[N+](CC)=c1sc2c(s1)C(c1ccc(Cl)cc1)Oc1ccc(C)cc1-2.F[B-](F)(F)F (configuration not stated) | 3.9 µg/mL
CC[N+](CC)=c1sc2c(s1)C(c1ccc(Br)cc1)Oc1ccc(C)cc1-2.F[B-](F)(F)F (configuration not stated) | 1.95 µg/mL
O=C(O)/C=C/c1ccc(-c2ccc(O)c(C34CC5CC(CC(C5)C3)C4)c2)cc1 [ADAROTENE] | 2 µg/mL (≈ 5.34 µM)

system: Staphylococcus aureus; test: Antibacterial activity against methicillin-resistant Staphylococcus aureus ATCC 33591 assessed as inhibition of bacterial growth incubated for 24 hrs by Mueller-Hinton broth assay; assay type: functional; details: not given

Compound | MIC
C=CCc1ccc(O)c(-c2cc(CC=C)ccc2O)c1 [MAGNOLOL] | 20 µg/mL (≈ 75.1 µM)
C=CCc1ccc(O)c(-c2ccc(O)c(CC=C)c2)c1 [HONOKIOL] | 10 µg/mL (≈ 37.5 µM)

system: not listed separately; test: Solubility of compound; assay type: physicochemical; details: not given

Compound | solubility
Cn1cc(-c2ccc(Cn3cnc4c(N5CCNCC5)ncnc43)cc2)nn1 | 31 µM (≈ 11.6 µg/mL)
Cn1cc(-c2ccc(Cn3cnc4c(N5CCNCC5)ncnc43)nc2)nn1 | 114 µM (≈ 42.9 µg/mL)

system: Staphylococcus aureus; test: Antibacterial activity against Staphylococcus aureus ATCC 25923 assessed as reduction in bacterial growth incubated for 24 hrs by broth micro-dilution method; assay type: functional; details: not given

Compound | MIC
C=C[C@]1(C)C[C@@H](OC(=O)CSCCN(CC)CC)[C@]2(C)[C@H](C)CC[C@]3(CCC(=O)[C@H]32)[C@@H](C)[C@@H]1O [TIAMULIN] | 0.25 µg/mL (≈ 0.506 µM)
C=C[C@]1(C)C[C@@H](OC(=O)CSC(C)(C)CNC(=O)[C@H](N)C(C)C)[C@]2(C)[C@H](C)CC[C@]3(CCC(=O)[C@H]32)[C@@H](C)[C@@H]1O [VALNEMULIN] | 0.06 µg/mL (≈ 0.106 µM)
C=C[C@]1(C)C[C@@H](OC(=O)CS[C@@H]2CC[C@@H](N)C[C@H]2O)[C@]2(C)[C@H](C)CC[C@]3(CCC(=O)[C@H]32)[C@@H](C)[C@@H]1O [LEFAMULIN] | 0.12 µg/mL (≈ 0.236 µM)
C=C[C@]1(C)C[C@@H](OC(=O)CS[C@@H]2C[C@H]3CC[C@@H](C2)N3C)[C@]2(C)[C@H](C)CC[C@]3(CCC(=O)[C@H]32)[C@@H](C)[C@@H]1O [RETAPAMULIN] | 0.25 µg/mL (≈ 0.483 µM)

system: Staphylococcus aureus; test: Antibacterial activity against Staphylococcus aureus assessed as reduction in bacterial growth; assay type: functional; details: not given

Compound | MIC
Cn1cc(-c2ccc(Cn3cnc4c(N5CCNCC5)ncnc43)cc2)nn1 | 0.25 µg/mL (≈ 0.666 µM)
Cn1cc(-c2ccc(Cn3cnc4c(N5CCNCC5)ncnc43)nc2)nn1 | 0.12 µg/mL (≈ 0.319 µM)
Cn1cc(-c2ccc(Cn3cnc4c(N)ncnc43)cc2)nn1 | 16.6 µg/mL (≈ 54.3 µM)

system: Staphylococcus aureus; test: Antibacterial activity against […] Staphylococcus aureus ATCC 29213 assessed as reduction in bacterial growth incubated for 16 to 18 hrs by CLSI protocol based Muller Hinton broth assay; assay type: functional; details: time 16-18 hrs

Compound | MIC
C[C@@H]1CC[C@@]23CCC(=O)[C@H]2[C@]1(C)[C@H](OC(=O)CSc1ccncc1)CC(=O)[C@@H](O)[C@@H]3C | > 16 µg/mL
CC[C@H]1C[C@@H](OC(=O)CS[C@@H]2CC[C@@H](N)C[C@H]2O)[C@]2(C)[C@H](C)C[C@]3(CCC(=O)[C@H]32)[C@@H](C)[C@@H]1O | > 16 µg/mL
C[C@@H]1[C@@H](O)[C@H](C)[C@]23CCC(=O)[C@H]2[C@@](C)([C@H](C)CC3)[C@@H]1OC(=O)CS[C@@H]1CC[C@@H](N)C[C@H]1O | > 32 µg/mL
CC[C@@]1(C)C[C@@H](OC(=O)CSc2ccncc2)[C@]2(C)[C@H](C)CC[C@]3(CCC(=O)[C@H]32)[C@@H](C)[C@@H]1O | 0.06 µg/mL (≈ 0.127 µM)
